System: KRAS patient-derived spheroids with HUVEC/MSC, viability
Test: Anticancer human tumor 323965-272-R-J2-PDC patient-derived pancreatic carcinoma cell line growth inhibition [KRAS2]
Settings: for viability, T/C: stronger effect = lower value
How it was run: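 KRAS-mutant tumor cells were grown as spheroids with HUVEC endothelial cells and human MSCs as stroma. Targeted agents were tested alone and with KRAS pathway inhibitors. Doses started at or near clinical Cmax, or 10 microM, descending half-log.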

[1] = curve of first compound, second compound 0.1 µM
[2] = curve of first compound, second compound 0.316 µM
[3] = curve of first compound, second compound 1 µM
[4] = curve of first compound, second compound 3.16 µM
[5] = curve of first compound, second compound 10 µM
[6] = second compound 0.1 µM, first compound 0.0316 µM
[7] = second compound 0.1 µM, first compound 0.1 µM
[8] = second compound 0.1 µM, first compound 0.316 µM
[9] = second compound 0.1 µM, first compound 1 µM
[10] = second compound 0.1 µM, first compound 3.16 µM
[11] = second compound 0.1 µM, first compound 10 µM
[12] = second compound 0.316 µM, first compound 0.0316 µM
[13] = second compound 0.316 µM, first compound 0.1 µM
[14] = second compound 0.316 µM, first compound 0.316 µM
[15] = second compound 0.316 µM, first compound 1 µM
[16] = second compound 0.316 µM, first compound 3.16 µM
[17] = second compound 0.316 µM, first compound 10 µM
[18] = second compound 1 µM, first compound 0.0316 µM
[19] = second compound 1 µM, first compound 0.1 µM
[20] = second compound 1 µM, first compound 0.316 µM
[21] = second compound 1 µM, first compound 1 µM
[22] = second compound 1 µM, first compound 3.16 µM
[23] = second compound 1 µM, first compound 10 µM
[24] = second compound 3.16 µM, first compound 0.0316 µM
[25] = second compound 3.16 µM, first compound 0.1 µM
[26] = second compound 3.16 µM, first compound 0.316 µM
[27] = second compound 3.16 µM, first compound 1 µM
[28] = second compound 3.16 µM, first compound 3.16 µM
[29] = second compound 3.16 µM, first compound 10 µM
[30] = second compound 10 µM, first compound 0.0316 µM
[31] = second compound 10 µM, first compound 0.1 µM
[32] = second compound 10 µM, first compound 0.316 µM
[33] = second compound 10 µM, first compound 1 µM
[34] = second compound 10 µM, first compound 3.16 µM
[35] = second compound 10 µM, first compound 10 µM
[36] = second compound 0.1 µM, first compound 0.000316 µM
[37] = second compound 0.1 µM, first compound 0.001 µM
[38] = second compound 0.1 µM, first compound 0.00316 µM
[39] = second compound 0.1 µM, first compound 0.01 µM
[40] = second compound 0.316 µM, first compound 0.000316 µM
[41] = second compound 0.316 µM, first compound 0.001 µM
[42] = second compound 0.316 µM, first compound 0.00316 µM
[43] = second compound 0.316 µM, first compound 0.01 µM
[44] = second compound 1 µM, first compound 0.000316 µM
[45] = second compound 1 µM, first compound 0.001 µM
[46] = second compound 1 µM, first compound 0.00316 µM
[47] = second compound 1 µM, first compound 0.01 µM
[48] = second compound 3.16 µM, first compound 0.000316 µM
[49] = second compound 3.16 µM, first compound 0.001 µM
[50] = second compound 3.16 µM, first compound 0.00316 µM
[51] = second compound 3.16 µM, first compound 0.01 µM
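Also: spheroids exposed to agents for 7 days.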
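For viability, T/C in this document: 100% = DMSO vehicle control viability.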

COC(=O)c1ccc2c(C(=Nc3ccc(N(C)C(=O)CN4CCN(C)CC4)cc3)c3ccccc3)c(O)[nH]c2c1 + CC1OCC2(CCN(c3cnc(Sc4ccnc(N)c4Cl)c(N)n3)CC2)C1N
IC50 [1]: > 10000 nM | IC50 [2]: 5080 nM | IC50 [3]: < 31.6 nM | IC50 [4]: < 31.6 nM | IC50 [5]: < 31.6 nM | viability, T/C [6]: 78.8% | viability, T/C [7]: 85.7% | viability, T/C [8]: 81.8% | viability, T/C [9]: 76.3% | viability, T/C [10]: 79.1% | viability, T/C [11]: 73.4% | viability, T/C [12]: 74.8% | viability, T/C [13]: 59.2% | viability, T/C [14]: 61.1% | viability, T/C [15]: 65.2% | viability, T/C [16]: 50% | viability, T/C [17]: 45.8% | viability, T/C [18]: 45.3% | viability, T/C [19]: 47.9% | viability, T/C [20]: 53.2% | viability, T/C [21]: 41.6% | viability, T/C [22]: 43.9% | viability, T/C [23]: 41.6% | viability, T/C [24]: 34.6% | viability, T/C [25]: 38.7% | viability, T/C [26]: 35.2% | viability, T/C [27]: 36% | viability, T/C [28]: 31.9% | viability, T/C [29]: 33.3% | viability, T/C [30]: 31.8% | viability, T/C [31]: 30.3% | viability, T/C [32]: 29.7% | viability, T/C [33]: 27.5% | viability, T/C [34]: 23.4% | viability, T/C [35]: 23.2%

CCNC(=O)CC1N=C(c2ccc(Cl)cc2)c2cc(OC)ccc2-n2c(C)nnc21 (centres undefined) + CNCc1ccccc1-c1csc(C(C)Nc2nc(C)nc3cc(OC)c(OC)cc23)c1
IC50 [1]: 370 nM | IC50 [2]: 332 nM | IC50 [3]: 466 nM | IC50 [4]: 436 nM | IC50 [5]: < 31.6 nM | viability, T/C [6]: 94.1% | viability, T/C [7]: 75.7% | viability, T/C [8]: 51.9% | viability, T/C [9]: 38.5% | viability, T/C [10]: 33.7% | viability, T/C [11]: 33.5% | viability, T/C [12]: 87.2% | viability, T/C [13]: 77.7% | viability, T/C [14]: 50.3% | viability, T/C [15]: 36.4% | viability, T/C [16]: 34.5% | viability, T/C [17]: 31.6% | viability, T/C [18]: 94.8% | viability, T/C [19]: 80.2% | viability, T/C [20]: 54.8% | viability, T/C [21]: 40.1% | viability, T/C [22]: 34.2% | viability, T/C [23]: 32.4% | viability, T/C [24]: 98.9% | viability, T/C [25]: 80.7% | viability, T/C [26]: 55.4% | viability, T/C [27]: 36.3% | viability, T/C [28]: 26.2% | viability, T/C [29]: 24.1% | viability, T/C [30]: 0.5% | viability, T/C [31]: 0.19% | viability, T/C [32]: 0.17% | viability, T/C [33]: 0.15% | viability, T/C [34]: 0.21% | viability, T/C [35]: 0.3%

Cn1nccc1Nc1nccc(-c2cc3c(s2)C(C)(C)N(CCN2CCOCC2)C3=O)n1
viability, T/C (compound 0.0316 µM): 92.9% [middle of 5 runs] | viability, T/C (compound 0.1 µM): 87.8% [middle of 5 runs] | viability, T/C (compound 0.316 µM): 77.6% [middle of 5 runs] | viability, T/C (compound 1 µM): 61.5% [middle of 5 runs] | viability, T/C (compound 3.16 µM): 43.7% [middle of 5 runs] | viability, T/C (compound 10 µM): 38.1% [middle of 5 runs] | IC50 (curve of compound): 2.35 µM [middle of 5 runs]

CCNC(=O)CC1N=C(c2ccc(Cl)cc2)c2cc(OC)ccc2-n2c(C)nnc21 (centres undefined)
viability, T/C (compound 0.0316 µM): 97.2% [middle of 5 runs] | viability, T/C (compound 0.1 µM): 83.4% [middle of 5 runs] | viability, T/C (compound 0.316 µM): 62.2% [middle of 5 runs] | viability, T/C (compound 1 µM): 44.5% [middle of 5 runs] | viability, T/C (compound 3.16 µM): 39.8% [middle of 5 runs] | viability, T/C (compound 10 µM): 36.7% [middle of 5 runs] | IC50 (curve of compound): 798 nM [middle of 5 runs]

CC(=O)Nc1cccc(-n2c(=O)n(C3CC3)c(=O)c3c(Nc4ccc(I)cc4F)n(C)c(=O)c(C)c32)c1 + CNCc1ccccc1-c1csc(C(C)Nc2nc(C)nc3cc(OC)c(OC)cc23)c1
IC50 [1]: 3.71 nM | IC50 [2]: 2.91 nM | IC50 [3]: 4.97 nM | IC50 [4]: 8.68 nM | IC50 [5]: < 0.1 nM | viability, T/C (second compound 0.1 µM, first compound 0.0001 µM): 88% | viability, T/C [36]: 83.9% | viability, T/C [37]: 60.7% | viability, T/C [38]: 52.4% | viability, T/C [39]: 41.2% | viability, T/C [6]: 27.7% | viability, T/C (second compound 0.316 µM, first compound 0.0001 µM): 85.3% | viability, T/C [40]: 68.7% | viability, T/C [41]: 62.7% | viability, T/C [42]: 49% | viability, T/C [43]: 38.7% | viability, T/C [12]: 24.8% | viability, T/C (second compound 1 µM, first compound 0.0001 µM): 89.8% | viability, T/C [44]: 81.6% | viability, T/C [45]: 67.7% | viability, T/C [46]: 55.5% | viability, T/C [47]: 44% | viability, T/C [18]: 21.3% | viability, T/C (second compound 3.16 µM, first compound 0.0001 µM): 95.6% | viability, T/C [48]: 88.4% | viability, T/C [49]: 77.6% | viability, T/C [50]: 64.3% | viability, T/C [51]: 48.4% | viability, T/C [24]: 28.8% | viability, T/C (second compound 10 µM, first compound 0.0001 µM): 7.63% | viability, T/C (second compound 10 µM, first compound 0.000316 µM): 0.79% | viability, T/C (second compound 10 µM, first compound 0.001 µM): 6.13% | viability, T/C (second compound 10 µM, first compound 0.00316 µM): 0.2% | viability, T/C (second compound 10 µM, first compound 0.01 µM): 0.19% | viability, T/C [30]: 1.14%

Cn1nccc1Nc1nccc(-c2cc3c(s2)C(C)(C)N(CCN2CCOCC2)C3=O)n1 + CC1OCC2(CCN(c3cnc(Sc4ccnc(N)c4Cl)c(N)n3)CC2)C1N
IC50 [1]: 806 nM | IC50 [2]: 102 nM | IC50 [3]: < 31.6 nM | IC50 [4]: < 31.6 nM | IC50 [5]: < 31.6 nM | viability, T/C [6]: 66.1% | viability, T/C [7]: 67.3% | viability, T/C [8]: 55.8% | viability, T/C [9]: 51% | viability, T/C [10]: 35.9% | viability, T/C [11]: 36.4% | viability, T/C [12]: 56% | viability, T/C [13]: 50.3% | viability, T/C [14]: 36.2% | viability, T/C [15]: 33.1% | viability, T/C [16]: 33.6% | viability, T/C [17]: 33.5% | viability, T/C [18]: 32.9% | viability, T/C [19]: 32.4% | viability, T/C [20]: 27.4% | viability, T/C [21]: 22% | viability, T/C [22]: 23.3% | viability, T/C [23]: 22.9% | viability, T/C [24]: 17.4% | viability, T/C [25]: 16% | viability, T/C [26]: 13.9% | viability, T/C [27]: 14.7% | viability, T/C [28]: 14.7% | viability, T/C [29]: 18.8% | viability, T/C [30]: 14.4% | viability, T/C [31]: 12.8% | viability, T/C [32]: 9.42% | viability, T/C [33]: 8.83% | viability, T/C [34]: 9.11% | viability, T/C [35]: 12.2%

CC(C)n1nc(-c2ccc3oc(N)nc3c2)c2c(N)ncnc21 + C=CC(=O)N1CCN(c2nc(OCC3CCCN3C)nc3c2CCN(c2cccc4cccc(C)c24)C3)CC1CC#N
IC50 (curve of first compound, second compound 0.0316 µM): 0.596 nM | IC50 [1]: 0.419 nM | IC50 [2]: < 0.316 nM | IC50 [3]: < 0.316 nM | IC50 [4]: < 0.316 nM | viability, T/C (second compound 0.0316 µM, first compound 0.000316 µM): 53% | viability, T/C (second compound 0.0316 µM, first compound 0.001 µM): 49.6% | viability, T/C (second compound 0.0316 µM, first compound 0.00316 µM): 30.5% | viability, T/C (second compound 0.0316 µM, first compound 0.01 µM): 26% | viability, T/C (second compound 0.0316 µM, first compound 0.0316 µM): 17.2% | viability, T/C (second compound 0.0316 µM, first compound 0.1 µM): 14.5% | viability, T/C [36]: 52% | viability, T/C [37]: 43.7% | viability, T/C [38]: 30.9% | viability, T/C [39]: 21.1% | viability, T/C [6]: 16.5% | viability, T/C [7]: 13.5% | viability, T/C [40]: 45.9% | viability, T/C [41]: 37.3% | viability, T/C [42]: 27.6% | viability, T/C [43]: 18.7% | viability, T/C [12]: 14.8% | viability, T/C [13]: 12.1% | viability, T/C [44]: 49.9% | viability, T/C [45]: 37.7% | viability, T/C [46]: 28.3% | viability, T/C [47]: 17.6% | viability, T/C [18]: 13.9% | viability, T/C [19]: 11.1% | viability, T/C [48]: 28.4% | viability, T/C [49]: 9.51% | viability, T/C [50]: 15.1% | viability, T/C [51]: 2.78% | viability, T/C [24]: 5.8% | viability, T/C [25]: 4.1%

Source: PubChem BioAssay AID1963869 (Molecular Pharmacology Branch, DTP, NCI, 2024)
